Here are results for one compound from patent US20240317755A1, “HETEROCYCLIC COMPOUND, AND INTERMEDIATE THEREOF, PREPARATION METHOD THEREFOR AND USE THEREOF” (WUHAN LL SCIENCE AND TECHNOLOGY DEVELOPMENT CO., LTD., priority 2021, published 2024).

Like-named read-outs stand apart in the source and are kept apart here.

The nature of series [1]: Liver microsome half-life assay, rat. The settings on record: liver microsomes, 1 mg/mL liver microsomal protein, 37° C., read-out: Liver microsome T½ (min) Rat. The class given is in vitro ADME. The protocol:
(§1) The in vitro metabolic stability of the compounds of the present disclosure was determined using warm incubation method of liver microsomes in various species. A proper amount of test compound was added to the liver microsomal reaction system (1 mg/mL liver microsomal protein, 25 U/mL glucose-6-phosphate dehydrogenase, 1 mM NADP, 6 mM D-glucose 6-phosphate, 5 mM MgCl2), and the reaction was started by warm incubation in a water bath at 37° C., then 100 μL of the reaction mixture at each time point was added to a centrifuge tube containing 400 μL of internal standard working solution precooled at 0° C. (containing a solution of 200 ng/mL dexamethasone, diclofenac, tolbutamide, and labetalol in acetonitrile), then the reaction was terminated, centrifuged at 4° C. and 10,000 g for 10 min, and the supernatant was taken into LC-MS for analysis and detection to obtain in vitro metabolic half-lives of the test compounds in liver microsomes of various species.
Background: Liver microsomes are vesicles of endoplasmic reticulum, rich in cytochrome P450 enzymes.

Series [2] can be described thus: Liver microsome half-life assay, mouse. In kind it is in vitro ADME. The conditions noted are these: liver microsomes, 1 mg/mL liver microsomal protein, 37° C., read-out: Liver microsome T½ (min) Mouse. The protocol: as §1
Series [3] is described as follows: Tissue distribution in CD-1 mice after single intragastric administration. The class given is in vivo. The settings on record: mouse, oral, male CD-1 mice, 10 mg/kg intragastric. How it is done: Mice: CD-1 mice, SPF grade, 9, male, weighting 18 to 22 g (source: SPF (Beijing) Biotechnology Co., Ltd., certificate number: 110324200103036532).
Dispensing: After accurately weighing compound L015, 20% solutol of the required volume was added thereto first, sonicated for 20 min and stirred for 1.5 hours until no visible particles were visible to the naked eye, and the middle layer of the drug solution was taken for drug administration. 2 parts of the top, middle, and bottom layers of the suspension were taken, and 2 parts of the middle layer of the clarified solution were taken, and 100 μL of each part was accurately aspirated into a 1.5 mL EP tube. Samples were taken before administration, and after sampling, the samples were stored in a −80° C. refrigerator and sent together with the plasma samples for bioanalytical test.
Animals were randomly divided into 3 groups. Compound L015 was administered at 3 different time points, with 3 animals per group, all males. All mice were given a single intragastric administration with an administration volume of 10 mL/kg. The specific grouping and administration information is as follows:
After the administration was completed, the animals in each group were anesthetized by intraperitoneal injection of 1% pentobarbital sodium (the administration volume was 0.06 mL/10 g) 5 minutes before their respective time points, and about 0.3 mL of blood was collected in an anticoagulant EP tube (containing 4 μL of EDTA-K2, 375 mg/mL), which was gently inverted for 3 times and stored in an ice box (no more than 30 minutes), centrifuged at 4° C. for 10 minutes with 3500×g. The supernatant was transferred to a labeled EP tube for bioanalytical test. If it could not be analyzed the same day, it was stored at −80° C. until further testing (be careful not to perform multiple freezing/thawing processes).
After the blood was taken, the abdominal cavity was quickly opened, and the abdominal aorta and vein of the […] were cut. After the blood was drained, the heart, liver, spleen, lung, kidney, and brain of the rat were taken, respectively. After the tissue was taken, the tissue was immediately rinsed with normal saline to remove any residual blood on the surface, blotted dry with filter paper, and the connective tissue was removed and weighed. The homogenization tube was placed in an ice water bath, and the tissue sample homogenate was thoroughly homogenized with a high-speed homogenizer and sent for bioanalytical test. If it could not be analyzed the same day, it was stored at −80° C. until further testing (be careful not to perform multiple thawing/freezing processes).
1.5 Sample analysis method 1.5.1 Experimental instruments: • High performance liquid chromatography pump (pump): Exion LC AD Pump, Sciex Company • Auto sampler: Exion LC AD Autosampler, Sciex Company • Column oven: Exion LC AD Column Oven, Sciex Company • Mass spectrometer: AB Sciex Qtrap 4500 • High-speed refrigerated centrifuge (centrifuge): Thermo Fisher, ST16R, GG1206085-093 • Analytical balance (electronic balance): Mettler Toledo, MS-105D, GG1206363 • Micro vortex (vortex): Shanghai Huxi Analysis Instrument Factory, WH-2, GG1206487 1.5.2 Experimental materials: mouse plasma and tissue
Sample pretreatment process: 3 μL of working solution was taken, and 57 μL of blank matrix was added into a 1.5 mL centrifuge tube, and then 240 μL of acetonitrile solution containing 200 ng/mL tolbutamide and labetalol mixed with 0.1% formic acid was added to precipitate protein. The mixture was vortexed and mixed for 1 minute, and then centrifuged in a 4° C. centrifuge at 13000 rpm for 15 minutes. 100 μL of supernatant was taken and added to another 96 deep well plate, and 100 μL of methanol:water (1:3, v:v) solution containing 0.1% FA was added. The mixture was mixed with shaking for 1 min, and centrifuged at 3500 rpm for 5 min in a 96-well plate centrifuge and the sample was injected directly. […]

`O=C(c1ccc(F)cc1C(F)(F)F)c1cnc2n1CCN(c1cn[nH]c(=O)c1Cl)C2` [Compound 1-6, 4-chloro-5-(3-(4-fluoro-2-(trifluoromethyl)benzoyl)-5,6-dihydroimidazo[1,2-a]pyrazin-7(8H)-yl)pyridazin-3(2H)-one]: the half-life in series [1] was 174 min; in series [2], 78 min. Also, the concentration at 0.167 h in series [3] (brain, 20% solutol, read-out: concentration in brain) came out at 706 ng/g; in series [3] (kidney, 20% solutol, read-out: concentration in kidney), 1470 ng/g; in series [3] (liver, 20% solutol, read-out: concentration in liver), 3260 ng/g. For the same compound, the concentration at 1 h in series [3] (brain, 20% solutol, 1 hour) was 161 ng/g. The concentration at 10 h in series [3] (brain, 20% solutol, 10 hours) stood at 25.9 ng/g. The Kp at 0.167 h is 0.05 in series [3] (brain, read-out: brain, times of the plasma concentration); 2.5 in series [3] (kidney, read-out: kidney, times of the plasma concentration); 5.55 in series [3] (liver, read-out: liver, times of the plasma concentration). For the same compound, the Kp at 1 h was found to be 0.19 in series [3] (brain, 1 hour, read-out: brain, times of the plasma concentration); 2.51 in series [3] (kidney, 1 hour, read-out: kidney, times of the plasma concentration); 4.53 in series [3] (liver, 1 hour, read-out: liver, times of the plasma concentration). Further, the Kp at 10 h worked out at 0.09 in series [3] (brain, 10 hours, read-out: brain, times of the plasma concentration); 1.5 in series [3] (kidney, 10 hours, read-out: kidney, times of the plasma concentration); 5.05 in series [3] (liver, 10 hours, read-out: liver, times of the plasma concentration).
